Reference: ChEMBL document CHEMBL5303573, “Mapping human microbiome drug metabolism by gut bacteria and their genes” (Nature, 2019)

What was measured:
[1] = The drug is tested on Alistipes indistinctus strain: DSM22520 for biotransformation. The drug concentrations were measured before and after a 12-h incubation by liquid-chromatography-coupled mass spectrometry (LC–MS); conditions: 2 µM
[2] = The drug is tested on Coprococcus comes strain: ATCC27758 for biotransformation. The drug concentrations were measured before and after a 12-h incubation by liquid-chromatography-coupled mass spectrometry (LC–MS); type: ADME; parameters: dose 2 uM, timepoint 0 vs 12 hours; conditions: 2 µM
[3] = enterocloster bolteae, 12 h, 2 µM
Description: The drug is tested on Clostridium bolteae strain: ATCCBAA-613 for biotransformation. The drug concentrations were measured before and after a 12-h incubation by liquid-chromatography-coupled mass spectrometry (LC–MS)

[4] = bacteroides fragilis, 12 h, 2 µM
Description: The drug is tested on Bacteroides fragilis strain: NCTC 9343 for biotransformation. The drug concentrations were measured before and after a 12-h incubation by liquid-chromatography-coupled mass spectrometry (LC–MS)

[5] = The drug is tested on Collinsella intestinalis strain: DSM13280 for biotransformation. The drug concentrations were measured before and after a 12-h incubation by liquid-chromatography-coupled mass spectrometry (LC–MS); conditions: 2 µM
[6] = roseburia intestinalis, 12 h, 2 µM
Description: The drug is tested on Roseburia intestinalis strain: L1-82 for biotransformation. The drug concentrations were measured before and after a 12-h incubation by liquid-chromatography-coupled mass spectrometry (LC–MS)

[7] = target: T1, Acyltransferase 3 domain-containing protein (Phocaeicola dorei, UniProt B6W2J3); assay: (§1) The drug is tested on Bacteroides dorei strain: DSM17855 for biotransformation. The drug concentrations were measured before and after a 12-h incubation by liquid-chromatography-coupled mass spectrometry (LC–MS); type: ADME; parameters: dose 2 uM; conditions: 2 µM
T1 sequence (B6W2J3 whole entry): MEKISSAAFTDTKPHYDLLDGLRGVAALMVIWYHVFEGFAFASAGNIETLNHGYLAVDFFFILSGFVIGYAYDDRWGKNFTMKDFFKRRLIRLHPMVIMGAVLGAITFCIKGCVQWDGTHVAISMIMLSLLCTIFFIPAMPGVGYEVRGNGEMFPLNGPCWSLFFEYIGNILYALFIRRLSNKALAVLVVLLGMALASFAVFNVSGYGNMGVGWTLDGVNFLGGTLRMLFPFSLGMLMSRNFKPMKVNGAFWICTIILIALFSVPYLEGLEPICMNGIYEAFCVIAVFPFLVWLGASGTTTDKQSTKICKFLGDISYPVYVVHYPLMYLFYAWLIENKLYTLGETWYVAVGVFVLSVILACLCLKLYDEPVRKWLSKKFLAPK

[8] = target: T2, SGNH hydrolase-type esterase domain-containing protein (Phocaeicola dorei, UniProt B6VTE7); assay: as §1; type: ADME; parameters: dose 2 uM; conditions: 2 µM
T2 sequence (B6VTE7 whole entry): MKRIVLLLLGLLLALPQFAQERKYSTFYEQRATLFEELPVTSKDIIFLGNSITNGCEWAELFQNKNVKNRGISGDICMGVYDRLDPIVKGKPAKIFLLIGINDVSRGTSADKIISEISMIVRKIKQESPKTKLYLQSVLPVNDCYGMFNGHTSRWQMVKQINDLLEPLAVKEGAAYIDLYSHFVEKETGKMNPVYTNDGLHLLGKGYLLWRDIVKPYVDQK

[9] = target: T3, Steroid 5-alpha reductase C-terminal domain-containing protein (Phocaeicola dorei, UniProt B6W0N3); assay: as §1; type: ADME; parameters: dose 2 uM; conditions: 2 µM
T3 sequence (B6W0N3 whole entry): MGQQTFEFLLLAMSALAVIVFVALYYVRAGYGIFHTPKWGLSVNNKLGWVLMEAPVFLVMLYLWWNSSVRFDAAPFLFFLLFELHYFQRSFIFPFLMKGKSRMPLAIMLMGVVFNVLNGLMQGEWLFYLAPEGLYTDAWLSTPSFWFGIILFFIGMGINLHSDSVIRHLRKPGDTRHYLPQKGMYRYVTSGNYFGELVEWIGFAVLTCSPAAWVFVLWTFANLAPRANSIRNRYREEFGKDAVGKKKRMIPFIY

[10] = target: T4, SGNH hydrolase-type esterase domain-containing protein (Phocaeicola dorei, UniProt B6W293); assay: as §1; type: ADME; parameters: dose 2 uM; conditions: 2 µM
T4 sequence (B6W293 whole entry): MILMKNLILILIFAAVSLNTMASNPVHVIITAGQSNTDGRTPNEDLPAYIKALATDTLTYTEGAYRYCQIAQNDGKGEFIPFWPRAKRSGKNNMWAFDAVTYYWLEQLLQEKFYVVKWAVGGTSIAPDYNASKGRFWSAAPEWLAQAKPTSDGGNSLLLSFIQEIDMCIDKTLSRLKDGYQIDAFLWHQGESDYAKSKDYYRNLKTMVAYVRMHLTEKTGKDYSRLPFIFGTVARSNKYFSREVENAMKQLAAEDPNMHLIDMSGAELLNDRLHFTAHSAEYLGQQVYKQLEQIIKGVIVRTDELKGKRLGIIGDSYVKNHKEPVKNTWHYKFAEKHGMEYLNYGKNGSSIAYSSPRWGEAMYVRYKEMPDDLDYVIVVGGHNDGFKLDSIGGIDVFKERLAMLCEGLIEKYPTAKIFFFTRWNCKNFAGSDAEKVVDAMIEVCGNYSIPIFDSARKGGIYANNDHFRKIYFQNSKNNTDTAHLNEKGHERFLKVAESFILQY

Esterase = target: T5, Esterase (Phocaeicola dorei, UniProt B6W2J6); assay: as §1; type: ADME; parameters: dose 2 uM; conditions: 2 µM
T5 sequence (B6W2J6 whole entry): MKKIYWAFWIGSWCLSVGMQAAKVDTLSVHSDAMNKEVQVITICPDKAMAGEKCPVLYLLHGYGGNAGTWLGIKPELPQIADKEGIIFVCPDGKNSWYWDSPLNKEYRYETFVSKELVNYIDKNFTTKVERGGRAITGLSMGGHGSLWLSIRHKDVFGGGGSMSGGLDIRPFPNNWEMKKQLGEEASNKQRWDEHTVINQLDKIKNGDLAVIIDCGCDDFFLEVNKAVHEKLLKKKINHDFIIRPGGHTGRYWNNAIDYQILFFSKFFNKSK

[11] = target: T6, SGNH hydrolase-type esterase domain-containing protein (Phocaeicola dorei, UniProt B6W1J1); assay: as §1; type: ADME; parameters: dose 2 uM; conditions: 2 µM
T6 sequence (B6W1J1 whole entry): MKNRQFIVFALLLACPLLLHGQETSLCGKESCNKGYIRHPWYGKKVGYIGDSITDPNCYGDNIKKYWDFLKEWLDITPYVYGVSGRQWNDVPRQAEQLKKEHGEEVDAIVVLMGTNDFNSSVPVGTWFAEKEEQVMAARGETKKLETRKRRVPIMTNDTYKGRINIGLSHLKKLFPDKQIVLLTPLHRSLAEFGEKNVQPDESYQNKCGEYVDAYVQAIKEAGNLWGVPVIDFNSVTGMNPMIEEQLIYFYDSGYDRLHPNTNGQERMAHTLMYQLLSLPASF

[12] = target: T7, Nitroreductase domain-containing protein (Phocaeicola dorei, UniProt B6W3P3); assay: as §1; type: ADME; parameters: dose 2 uM; conditions: 2 µM
T7 sequence (B6W3P3 whole entry): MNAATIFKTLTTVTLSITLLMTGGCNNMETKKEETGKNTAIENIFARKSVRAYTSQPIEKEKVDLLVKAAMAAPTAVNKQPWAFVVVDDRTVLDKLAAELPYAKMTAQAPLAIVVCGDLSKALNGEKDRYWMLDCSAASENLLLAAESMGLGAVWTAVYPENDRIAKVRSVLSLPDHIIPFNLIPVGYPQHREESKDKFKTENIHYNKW

[13] = bacteroides stercoris, 12 h, 2 µM
Description: The drug is tested on Bacteroides stercoris strain: ATCC43183 for biotransformation. The drug concentrations were measured before and after a 12-h incubation by liquid-chromatography-coupled mass spectrometry (LC–MS)

With Nc1ccc(/N=N/c2ccccc2)c(N)n1 [PHENAZOPYRIDINE] the “Bacterial Biotransformation” value [1] was “Compound metabolized”, the “Bacterial Biotransformation” value [2] was “Compound metabolized” and the “Bacterial Biotransformation” value [3] was “Compound metabolized”. The “Bacterial Biotransformation” value [4] was “Compound metabolized”, the “Bacterial Biotransformation” value [5] was “Compound metabolized” and the “Bacterial Biotransformation” value [6] was “Compound metabolized”. The “Bacterial Biotransformation” value [7] was “Compound NOT metabolized”, the “Bacterial Biotransformation” value [8] was “Compound NOT metabolized” and the “Bacterial Biotransformation” value [9] was “Compound NOT metabolized”. For the same molecule, the “Bacterial Biotransformation” value [10] was “Compound NOT metabolized”, the “Bacterial Biotransformation” value (Esterase) was “Compound NOT metabolized” and the “Bacterial Biotransformation” value [11] was “Compound NOT metabolized”. The “Bacterial Biotransformation” value [12] was “Compound NOT metabolized”.

With CC(=O)OCC(=O)NCCCOc1cccc(CN2CCCCC2)c1 [ROXATIDINE ACETATE] the “Bacterial Biotransformation” value [1] was “Compound metabolized”, the “Bacterial Biotransformation” value [2] was “Compound metabolized” and the “Bacterial Biotransformation” value [3] was “Compound metabolized”. The “Bacterial Biotransformation” value [4] was “Compound metabolized”, the “Bacterial Biotransformation” value [5] was “Compound metabolized” and the “Bacterial Biotransformation” value [13] was “Compound metabolized”. For the same molecule, the “Bacterial Biotransformation” value [6] was “Compound metabolized”, the “Bacterial Biotransformation” value [7] was “Compound NOT metabolized” and the “Bacterial Biotransformation” value [8] was “Compound NOT metabolized”. For the same molecule, the “Bacterial Biotransformation” value [9] was “Compound NOT metabolized”, the “Bacterial Biotransformation” value [10] was “Compound NOT metabolized” and the “Bacterial Biotransformation” value (Esterase) was “Compound NOT metabolized”. For the same molecule, the “Bacterial Biotransformation” value [11] was “Compound NOT metabolized” and the “Bacterial Biotransformation” value [12] was “Compound NOT metabolized”.

With CCS(=O)(=O)CCn1c([N+](=O)[O-])cnc1C [TINIDAZOLE] the “Bacterial Biotransformation” value [1] was “Compound metabolized”, the “Bacterial Biotransformation” value [2] was “Compound metabolized” and the “Bacterial Biotransformation” value [3] was “Compound metabolized”. The “Bacterial Biotransformation” value [4] was “Compound metabolized”, the “Bacterial Biotransformation” value [5] was “Compound metabolized” and the “Bacterial Biotransformation” value [13] was “Compound metabolized”. The “Bacterial Biotransformation” value [6] was “Compound metabolized”, the “Bacterial Biotransformation” value [7] was “Compound NOT metabolized” and the “Bacterial Biotransformation” value [8] was “Compound NOT metabolized”. The “Bacterial Biotransformation” value [9] was “Compound NOT metabolized”, the “Bacterial Biotransformation” value [10] was “Compound NOT metabolized” and the “Bacterial Biotransformation” value (Esterase) was “Compound NOT metabolized”. The “Bacterial Biotransformation” value [11] was “Compound NOT metabolized” and the “Bacterial Biotransformation” value [12] was “Compound metabolized”.

For CC(=O)Oc1ccc(C(c2ccc(OC(C)=O)cc2)c2ccccn2)cc1 [BISACODYL], the “Bacterial Biotransformation” value [1] was “Compound metabolized”, the “Bacterial Biotransformation” value [2] was “Compound metabolized” and the “Bacterial Biotransformation” value [3] was “Compound metabolized”. The “Bacterial Biotransformation” value [4] was “Compound metabolized”, the “Bacterial Biotransformation” value [5] was “Compound metabolized” and the “Bacterial Biotransformation” value [13] was “Compound metabolized”. For the same molecule, the “Bacterial Biotransformation” value [6] was “Compound metabolized”, the “Bacterial Biotransformation” value [7] was “Compound NOT metabolized” and the “Bacterial Biotransformation” value [8] was “Compound metabolized”. For the same molecule, the “Bacterial Biotransformation” value [9] was “Compound NOT metabolized”, the “Bacterial Biotransformation” value [10] was “Compound metabolized” and the “Bacterial Biotransformation” value (Esterase) was “Compound metabolized”. For the same molecule, the “Bacterial Biotransformation” value [11] was “Compound metabolized” and the “Bacterial Biotransformation” value [12] was “Compound NOT metabolized”.

For C#C[C@]1(O)CC[C@H]2[C@@H]3CCC4=Cc5oncc5C[C@]4(C)[C@H]3CC[C@@]21C [DANAZOL], the “Bacterial Biotransformation” value [1] was “Compound metabolized”, the “Bacterial Biotransformation” value [2] was “Compound metabolized” and the “Bacterial Biotransformation” value [3] was “Compound metabolized”. For the same molecule, the “Bacterial Biotransformation” value [4] was “Compound metabolized”, the “Bacterial Biotransformation” value [5] was “Compound metabolized” and the “Bacterial Biotransformation” value [13] was “Compound metabolized”. For the same molecule, the “Bacterial Biotransformation” value [6] was “Compound metabolized”, the “Bacterial Biotransformation” value [7] was “Compound NOT metabolized” and the “Bacterial Biotransformation” value [8] was “Compound NOT metabolized”. The “Bacterial Biotransformation” value [9] was “Compound NOT metabolized”, the “Bacterial Biotransformation” value [10] was “Compound NOT metabolized” and the “Bacterial Biotransformation” value (Esterase) was “Compound NOT metabolized”. For the same molecule, the “Bacterial Biotransformation” value [11] was “Compound NOT metabolized” and the “Bacterial Biotransformation” value [12] was “Compound NOT metabolized”.

With CC(=O)SCC(Cc1ccccc1)C(=O)NCC(=O)OCc1ccccc1 (configuration not stated) [RACECADOTRIL] the “Bacterial Biotransformation” value [1] was “Compound metabolized”, the “Bacterial Biotransformation” value [3] was “Compound NOT metabolized” and the “Bacterial Biotransformation” value [4] was “Compound metabolized”. The “Bacterial Biotransformation” value [5] was “Compound NOT metabolized”, the “Bacterial Biotransformation” value [13] was “Compound metabolized” and the “Bacterial Biotransformation” value [6] was “Compound metabolized”. The “Bacterial Biotransformation” value [7] was “Compound NOT metabolized”, the “Bacterial Biotransformation” value [8] was “Compound NOT metabolized” and the “Bacterial Biotransformation” value [9] was “Compound NOT metabolized”. For the same molecule, the “Bacterial Biotransformation” value [10] was “Compound NOT metabolized”, the “Bacterial Biotransformation” value (Esterase) was “Compound NOT metabolized” and the “Bacterial Biotransformation” value [11] was “Compound NOT metabolized”. The “Bacterial Biotransformation” value [12] was “Compound NOT metabolized”.
